According to patent US10273226B2, “Pyrazolyl-heteroarylamides as pesticides” (Bayer Animal Health GmbH, priority 2014, dated 2019):

The compounds below were run on Ctenocephalides felis (assay: Ctenocephalides felis oral test). Details: application rate 100 ppm in citrated cattle blood; after 2 days.
Format: in vivo
Procedure: Ctenocephalides felis—Oral Test
(§1) Solvent: dimethyl sulphoxide
For the purpose of producing an appropriate active ingredient formulation, 10 mg of active ingredient are mixed with 0.5 ml of dimethyl sulphoxide. Dilution with citrated cattle blood gives the desired concentration.
About 20 unfed adult cat fleas (Ctenocephalides felis) are placed into a chamber which is closed at the top and bottom with gauze. A metal cylinder whose bottom end is closed with parafilm is placed onto the chamber. The cylinder contains the blood/active ingredient preparation, which can be imbibed by the fleas through the parafilm membrane.
After 2 days, the kill in % is determined. 100% means that all of the fleas have been killed; 0% means that none of the fleas have been killed.
In the case of `COc1cc(C(=O)Nc2cc(-c3cnn(-c4c(C(F)(F)F)c(C(F)(F)C(F)(F)F)nn4C)c3)ccc2F)ccc1C` [Example 1-097], the “efficacy (kill in %)” value is reported as 100%.
`Cn1nc(C(F)(F)C(F)(F)F)c(C(F)(F)F)c1-n1cc(-c2ccc(F)c(NC(=O)c3cccnc3)c2)cn1` [Example 1-085] was tested, and the “efficacy (kill in %)” value was 100%.
`Cn1nc(C(F)(F)C(F)(F)F)c(C(F)(F)F)c1-n1cc(-c2ccc(F)c(NC(=O)c3ccc4c(c3)OC(F)(F)O4)c2)cn1` [Example 1-084] was tested, and the “efficacy (kill in %)” value was 100%.
`Cn1nc(C(F)(F)C(F)(F)F)c(C(F)(F)F)c1-n1cc(-c2ccc(F)c(NC(=O)Cc3ccc(F)cc3Cl)c2)cn1` [Example 1-126] was tested, and the “efficacy (kill in %)” value was 100%.
In the case of `Cn1nc(C(F)(F)C(F)(F)F)c(C(F)(F)F)c1-n1cc(-c2ccc(Cl)c(NC(=O)c3ccccc3)c2)cn1` [Example 1-023], the “efficacy (kill in %)” value is reported as 100%.

What follows are compounds tested on Phaedon cochleariae (assay: Phaedon cochleariae spray test). Details: application rate 100 g/ha; larvae; after 7 days.
Format: in vivo
Procedure: Phaedon cochleariae—Spray Test
(§2) To produce an appropriate active ingredient formulation, 1 part by weight of active ingredient is dissolved using the specified parts by weight of solvent and made up with water containing an emulsifier concentration of 1000 ppm until the desired concentration is attained. To produce further test concentrations, the preparation is diluted with emulsifier-containing water.
Discs of Chinese cabbage leaves (Brassica pekinensis) are sprayed with an active ingredient formulation of the desired concentration and, after drying, populated with larvae of the mustard beetle (Phaedon cochleariae).
After 7 days, efficacy in % is determined. 100% means that all the beetle larvae have been killed; 0% means that no beetle larvae have been killed.
`COc1cc(C(=O)Nc2cc(-c3cnn(-c4c(C(F)(F)F)c(C(F)(F)C(F)(F)F)nn4C)c3)ccc2F)ccc1C` [Example 1-097] gave an efficacy of 100%.
For `Cn1nc(C(F)(F)C(F)(F)F)c(C(F)(F)F)c1-n1cc(-c2ccc(F)c(NC(=O)c3cccnc3)c2)cn1` [Example 1-085], the efficacy was 100%.
Compound `Cn1nc(C(F)(F)C(F)(F)F)c(C(F)(F)F)c1-n1cc(-c2ccc(F)c(NC(=O)c3ccc4c(c3)OC(F)(F)O4)c2)cn1` [Example 1-084] has an efficacy of 100%.
Work on `Cn1nc(C(F)(F)C(F)(F)F)c(C(F)(F)F)c1-n1cc(-c2ccc(F)c(NC(=O)Cc3ccc(F)cc3Cl)c2)cn1` [Example 1-126] yielded an efficacy of 100%.
In the case of `Cn1nc(C(F)(F)C(F)(F)F)c(C(F)(F)F)c1-n1cc(-c2ccc(Cl)c(NC(=O)c3ccccc3)c2)cn1` [Example 1-023], the efficacy is reported as 100%.

These compounds were tested on Ctenocephalides felis (assay: Ctenocephalides felis in vitro contact test with adult cat fleas). Details: application rate 5 μg/cm^2 (500 g/ha); after 48 h; fleas dead or moribund.
Format: in vivo
Procedure: Ctenocephalides felis—In Vitro Contact Tests with Adult Cat Fleas
(§3) For the coating of the test tubes, 9 mg of active ingredient are first dissolved in 1 ml of acetone p.a. and then diluted to the desired concentration with acetone p.a. 250 μl of the solution are distributed homogeneously on the inner walls and base of a 25 ml test tube by turning and rocking on an orbital shaker (rocking rotation at 30 rpm for 2 h). With 900 ppm active ingredient solution and internal surface 44.7 cm^2, given homogeneous distribution, an area-based dose of 5 μg/cm^2 is achieved.
After the solvent has evaporated off, the tubes are populated with 5-10 adult cat fleas (Ctenocephalides felis), sealed with a perforated plastic lid and incubated in a horizontal position at room temperature and ambient humidity. After 48 h, efficacy is determined. To this end, the test tubes are stood upright and the fleas are knocked to the base of the tube. Fleas which remain motionless at the base or move in an uncoordinated manner are considered to be dead or moribund.
100% efficacy means that all the fleas were dead or moribund. 0% efficacy means that no fleas were harmed.
`COc1cc(C(=O)Nc2cc(-c3cnn(-c4c(C(F)(F)F)c(C(F)(F)C(F)(F)F)nn4C)c3)ccc2F)ccc1C` [Example 1-097] was tested, and the efficacy was 100%.
For `Cn1nc(C(F)(F)C(F)(F)F)c(C(F)(F)F)c1-n1cc(-c2ccc(F)c(NC(=O)c3cccnc3)c2)cn1` [Example 1-085], the efficacy was 100%.
Compound `Cn1nc(C(F)(F)C(F)(F)F)c(C(F)(F)F)c1-n1cc(-c2ccc(Cl)c(NC(=O)c3ccccc3)c2)cn1` [Example 1-023] has an efficacy of 100%.

These compounds were tested on Spodoptera frugiperda (assay: Spodoptera frugiperda spray test). Details: application rate 100 g/ha; caterpillars; after 7 days.
Format: in vivo
Procedure: Spodoptera frugiperda—Spray Test
as §2
Leaf discs of maize (Zea mays) are sprayed with an active ingredient formulation of the desired concentration and, after drying, populated with caterpillars of the armyworm (Spodoptera frugiperda).
After 7 days, efficacy in % is determined. 100% means that all the caterpillars have been killed; 0% means that no caterpillars have been killed.
Work on `COc1cc(C(=O)Nc2cc(-c3cnn(-c4c(C(F)(F)F)c(C(F)(F)C(F)(F)F)nn4C)c3)ccc2F)ccc1C` [Example 1-097] yielded an efficacy of 100%.
For `Cn1nc(C(F)(F)C(F)(F)F)c(C(F)(F)F)c1-n1cc(-c2ccc(F)c(NC(=O)c3cccnc3)c2)cn1` [Example 1-085], the efficacy was 83%.
`Cn1nc(C(F)(F)C(F)(F)F)c(C(F)(F)F)c1-n1cc(-c2ccc(F)c(NC(=O)c3ccc4c(c3)OC(F)(F)O4)c2)cn1` [Example 1-084] gave an efficacy of 100%.
Work on `Cn1nc(C(F)(F)C(F)(F)F)c(C(F)(F)F)c1-n1cc(-c2ccc(Cl)c(NC(=O)c3ccccc3)c2)cn1` [Example 1-023] yielded an efficacy of 100%.

These compounds were tested on Boophilus microplus (assay: Boophilus microplus injection test). Details: application rate 20 μg/animal; injection into abdomen; assessed after 7 days.
Format: in vivo
Procedure: Boophilus microplus—Injection Test
as §1
To produce an appropriate active ingredient formulation, 10 mg of active ingredient are mixed with 0.5 ml of solvent and the concentrate is diluted with solvent to the desired concentration.
1 μl of the active ingredient solution is injected into the abdomen of 5 engorged adult female cattle ticks (Boophilus microplus). The animals are transferred into dishes and kept in a climate-controlled room.
Efficacy is assessed after 7 days by laying of fertile eggs. Eggs which are not visibly fertile are stored in a climate-controlled cabinet until the larvae hatch after about 42 days. An efficacy of 100% means that none of the ticks has laid any fertile eggs; 0% means that all the eggs are fertile.
For `Cn1nc(C(F)(F)C(F)(F)F)c(C(F)(F)F)c1-n1cc(-c2ccc(F)c(NC(=O)C(C)(C)c3cccc(Cl)c3)c2)cn1` [Example 1-119], the “efficacy (laying of fertile eggs)” value was 100%.
`COc1cc(C(=O)Nc2cc(-c3cnn(-c4c(C(F)(F)F)c(C(F)(F)C(F)(F)F)nn4C)c3)ccc2F)ccc1C` [Example 1-097] was tested, and the “efficacy (laying of fertile eggs)” value was 100%.
With `Cn1nc(C(F)(F)C(F)(F)F)c(C(F)(F)F)c1-n1cc(-c2ccc(F)c(NC(=O)c3cccnc3)c2)cn1` [Example 1-085] the “efficacy (laying of fertile eggs)” value was 100%.
In the case of `Cn1nc(C(F)(F)C(F)(F)F)c(C(F)(F)F)c1-n1cc(-c2ccc(F)c(NC(=O)c3ccc4c(c3)OC(F)(F)O4)c2)cn1` [Example 1-084], the “efficacy (laying of fertile eggs)” value is reported as 100%.
For `Cn1nc(C(F)(F)C(F)(F)F)c(C(F)(F)F)c1-n1cc(-c2ccc(F)c(NC(=O)Cc3ccc(F)cc3Cl)c2)cn1` [Example 1-126], the “efficacy (laying of fertile eggs)” value was 100%.
For `Cn1nc(C(F)(F)C(F)(F)F)c(C(F)(F)F)c1-n1cc(-c2ccc(Cl)c(NC(=O)c3ccccc3)c2)cn1` [Example 1-023], the “efficacy (laying of fertile eggs)” value was 100%.

Each compound was assayed on Rhipicephalus sanguineus (assay: Rhipicephalus sanguineus in vitro contact test with adult brown dog ticks). Details: application rate 5 μg/cm^2 (500 g/ha); after 48 h; ticks dead or moribund.
Format: in vivo
Procedure: Rhipicephalus sanguineus—In Vitro Contact Tests with Adult Brown Dog Ticks
as §3
After the solvent has evaporated off, the tubes are populated with 5-10 adult dog ticks (Rhipicephalus sanguineus), sealed with a perforated plastic lid and incubated in a horizontal position in the dark at room temperature and ambient humidity. After 48 h, efficacy is determined. To this end, the ticks are knocked to the floor of the tube and incubated on a hotplate at 45-50° C. for not more than 5 min. Ticks which remain motionless on the floor or move in such an uncoordinated manner that they are unable to deliberately avoid the heat by climbing upwards are considered to be dead or moribund.
An efficacy of 100% means that all the ticks were dead or moribund. 0% efficacy means that none of the ticks had been harmed.
`COc1cc(C(=O)Nc2cc(-c3cnn(-c4c(C(F)(F)F)c(C(F)(F)C(F)(F)F)nn4C)c3)ccc2F)ccc1C` [Example 1-097] gave an efficacy of 100%.
Compound `Cn1nc(C(F)(F)C(F)(F)F)c(C(F)(F)F)c1-n1cc(-c2ccc(F)c(NC(=O)c3cccnc3)c2)cn1` [Example 1-085] has an efficacy of 100%.
Work on `Cn1nc(C(F)(F)C(F)(F)F)c(C(F)(F)F)c1-n1cc(-c2ccc(F)c(NC(=O)c3ccc4c(c3)OC(F)(F)O4)c2)cn1` [Example 1-084] yielded an efficacy of 80%.
Work on `Cn1nc(C(F)(F)C(F)(F)F)c(C(F)(F)F)c1-n1cc(-c2ccc(Cl)c(NC(=O)c3ccccc3)c2)cn1` [Example 1-023] yielded an efficacy of 100%.

Each compound was assayed on Tetranychus urticae (assay: Tetranychus urticae spray test, OP-resistant). Details: application rate 100 g/ha; after 6 days.
Format: in vivo
Procedure: Tetranychus urticae—Spray Test, OP-Resistant
as §2
Discs of bean leaves (Phaseolus vulgaris) infested by all stages of the greenhouse red spider mite (Tetranychus urticae) are sprayed with an active ingredient formulation of the desired concentration.
After 6 days, efficacy in % is determined. 100% means that all the spider mites have been killed; 0% means that none of the spider mites have been killed.
In the case of `COc1cc(C(=O)Nc2cc(-c3cnn(-c4c(C(F)(F)F)c(C(F)(F)C(F)(F)F)nn4C)c3)ccc2F)ccc1C` [Example 1-097], the efficacy is reported as 100%.
Compound `Cn1nc(C(F)(F)C(F)(F)F)c(C(F)(F)F)c1-n1cc(-c2ccc(F)c(NC(=O)c3cccnc3)c2)cn1` [Example 1-085] has an efficacy of 100%.
Compound `Cn1nc(C(F)(F)C(F)(F)F)c(C(F)(F)F)c1-n1cc(-c2ccc(Cl)c(NC(=O)c3ccccc3)c2)cn1` [Example 1-023] has an efficacy of 100%.

What follows are compounds tested on Musca domestica (assay: Musca domestica test). Details: application rate 100 ppm; adult houseflies; after 2 days.
Format: in vivo
Procedure: as §1
(§4) To produce an appropriate active ingredient formulation, 10 mg of active ingredient are mixed with 0.5 ml of dimethyl sulphoxide, and the concentrate is diluted with water to the desired concentration.
Vessels containing a sponge treated with sugar solution and the active ingredient formulation of the desired concentration are populated with 10 adult houseflies (Musca domestica).
After 2 days, the kill in % is determined. 100% means that all of the flies have been killed; 0% means that none of the flies have been killed.
With `Cn1nc(C(F)(F)C(F)(F)F)c(C(F)(F)F)c1-n1cc(-c2ccc(F)c(NC(=O)C(C)(C)c3cccc(Cl)c3)c2)cn1` [Example 1-119] the “efficacy (kill in %)” value was 80%.
In the case of `Cn1nc(C(F)(F)C(F)(F)F)c(C(F)(F)F)c1-n1cc(-c2ccc(F)c(NC(=O)c3ccc4c(c3)OC(F)(F)O4)c2)cn1` [Example 1-084], the “efficacy (kill in %)” value is reported as 100%.
For `Cn1nc(C(F)(F)C(F)(F)F)c(C(F)(F)F)c1-n1cc(-c2ccc(F)c(NC(=O)Cc3ccc(F)cc3Cl)c2)cn1` [Example 1-126], the “efficacy (kill in %)” value was 90%.

What follows are compounds tested on Lucilia cuprina (assay: Lucilia cuprina test). Details: application rate 100 ppm; L1 larvae; after 2 days.
Format: in vivo
Procedure: as §1, §4
About 20 L1 larvae of the Australian sheep blowfly (Lucilia cuprina) are transferred into a test vessel containing minced horsemeat and the active ingredient preparation of the desired concentration.
After 2 days, the kill in % is determined. 100% means that all the larvae have been killed and 0% means that none of the larvae have been killed.
In the case of `Cn1nc(C(F)(F)C(F)(F)F)c(C(F)(F)F)c1-n1cc(-c2ccc(F)c(NC(=O)C(C)(C)c3cccc(Cl)c3)c2)cn1` [Example 1-119], the “efficacy (kill in %)” value is reported as 100%.
In the case of `COc1cc(C(=O)Nc2cc(-c3cnn(-c4c(C(F)(F)F)c(C(F)(F)C(F)(F)F)nn4C)c3)ccc2F)ccc1C` [Example 1-097], the “efficacy (kill in %)” value is reported as 100%.
`Cn1nc(C(F)(F)C(F)(F)F)c(C(F)(F)F)c1-n1cc(-c2ccc(F)c(NC(=O)c3cccnc3)c2)cn1` [Example 1-085] was tested, and the “efficacy (kill in %)” value was 100%.
For `Cn1nc(C(F)(F)C(F)(F)F)c(C(F)(F)F)c1-n1cc(-c2ccc(F)c(NC(=O)c3ccc4c(c3)OC(F)(F)O4)c2)cn1` [Example 1-084], the “efficacy (kill in %)” value was 100%.
In the case of `Cn1nc(C(F)(F)C(F)(F)F)c(C(F)(F)F)c1-n1cc(-c2ccc(F)c(NC(=O)Cc3ccc(F)cc3Cl)c2)cn1` [Example 1-126], the “efficacy (kill in %)” value is reported as 100%.
In the case of `Cn1nc(C(F)(F)C(F)(F)F)c(C(F)(F)F)c1-n1cc(-c2ccc(Cl)c(NC(=O)c3ccccc3)c2)cn1` [Example 1-023], the “efficacy (kill in %)” value is reported as 100%.
